Measured values published in ChEMBL document CHEMBL1130807, “The synthesis of symmetrical and unsymmetrical P1/P1' cyclic ureas as HIV protease inhibitors” (Bioorg Med Chem Lett, 1998).
In brackets after ≈: the same amount, converted by molar mass.

Key:
[1] = test system: Human immunodeficiency virus 1; assay: Compound was evaluated for potency against […] HIV WT strain; format: functional
[2] = test system: Human immunodeficiency virus 1; assay: Compound was evaluated for potency against HIV single mutant I84V strain; format: functional
[3] = biological target: Human immunodeficiency virus type 1 protease (Human immunodeficiency virus 1, UniProt Q72874); assay: Inhibition of human immunodeficiency virus (HIV) protease isolated enzyme assay
[4] = Antiviral activity was evaluated by whole cell based assay; format: functional
[5] = Solubility in 0.1 N HCl; format: physicochemical; details: read-out: S
[6] = test system: Human immunodeficiency virus 1; assay: Compound was evaluated for potency against Double mutant HIV I84V/V82F strains; format: functional

| SMILES | IC90 [1] [nM] | IC90 [2] [nM] | Ki [3] [nM] | IC90 [4] [nM] | solubility [5] [µg/mL] | IC90 [6] [nM] |
| --- | --- | --- | --- | --- | --- | --- |
| Nc1ccc(C[C@@H]2[C@H](O)[C@@H](O)[C@@H](Cc3ccc(N)cc3)N(Cc3cccc(C(=O)Nc4nc5ccccc5[nH]4)c3)C(=O)N2Cc2cccc(C(=O)Nc3nc4ccccc4[nH]3)c2)cc1 | 10 | 23 | 0.016 | 10 | 8.3 (≈ 9.71 µM) | 76 |
| CC(C)C[C@@H]1[C@H](O)[C@@H](O)[C@@H](CC(C)C)N(Cc2cccc(C(=O)Nc3nc4ccccc4[nH]3)c2)C(=O)N1Cc1cccc(C(=O)Nc2nc3ccccc3[nH]2)c1 | 26 | 20 | 0.3 | 59 | – | 12 |
| O=C(Nc1nc2ccccc2[nH]1)c1cccc(CN2C(=O)N(Cc3cccc(C(=O)Nc4nc5ccccc5[nH]4)c3)[C@H](Cc3ccc(O)cc3)[C@H](O)[C@@H](O)[C@H]2Cc2ccc(O)cc2)c1 | – | – | 0.035 | 35 | – | – |
| O=C(Nc1nc2ccccc2[nH]1)c1cccc(CN2C(=O)N(Cc3cccc(C(=O)Nc4nc5ccccc5[nH]4)c3)[C@H](Cc3ccc(OCc4ccccc4)cc3)[C@H](O)[C@@H](O)[C@H]2Cc2ccc(OCc3ccccc3)cc2)c1 | – | – | 3.7 | 125 | – | – |
| CCCCCC[C@@H]1[C@H](O)[C@@H](O)[C@@H](Cc2ccccc2)N(Cc2cccc(C(=O)Nc3nc4ccccc4[nH]3)c2)C(=O)N1Cc1cccc(C(=O)Nc2nc3ccccc3[nH]2)c1 | 9 | 24 | 0.046 | 9 | 118 (≈ 144 µM) | 24 |
| CN(C)c1ccc(C[C@@H]2[C@H](O)[C@@H](O)[C@@H](Cc3ccc(N(C)C)cc3)N(Cc3cccc(C(=O)Nc4nc5ccccc5[nH]4)c3)C(=O)N2Cc2cccc(C(=O)Nc3nc4ccccc4[nH]3)c2)cc1 | 8 | 8 | 0.038 | 8 | 13.2 (≈ 14.5 µM) | 22 |
| CC[C@@H]1[C@H](O)[C@@H](O)[C@@H](Cc2ccccc2)N(Cc2cccc(C(=O)Nc3nc4ccccc4[nH]3)c2)C(=O)N1Cc1cccc(C(=O)Nc2nc3ccccc3[nH]2)c1 | – | – | 0.069 | 26 | – | – |
| CC(C)C[C@@H]1[C@H](O)[C@@H](O)[C@@H](Cc2ccccc2)N(Cc2cccc(C(=O)Nc3nc4ccccc4[nH]3)c2)C(=O)N1Cc1cccc(C(=O)Nc2nc3ccccc3[nH]2)c1 | 10 | 9 | 0.038 | 10 | 160 (≈ 202 µM) | 82 |
| CCCCCC[C@@H]1[C@H](O)[C@@H](O)[C@@H](CCCCCC)N(Cc2cccc(C(=O)Nc3nc4ccccc4[nH]3)c2)C(=O)N1Cc1cccc(C(=O)Nc2nc3ccccc3[nH]2)c1 | – | – | 0.35 | 86 | – | – |
| COc1ccc(C[C@@H]2[C@H](O)[C@@H](O)[C@@H](Cc3ccc(OC)cc3)N(Cc3cccc(C(=O)Nc4nc5ccccc5[nH]4)c3)C(=O)N2Cc2cccc(C(=O)Nc3nc4ccccc4[nH]3)c2)cc1 | – | – | 0.026 | 19 | – | – |
| CC[C@@H]1[C@H](O)[C@@H](O)[C@@H](CC)N(Cc2cccc(C(=O)Nc3nc4ccccc4[nH]3)c2)C(=O)N1Cc1cccc(C(=O)Nc2nc3ccccc3[nH]2)c1 | – | – | 4.5 | 570 | – | – |
| O=C(Nc1nc2ccccc2[nH]1)c1cccc(CN2C(=O)N(Cc3cccc(C(=O)Nc4nc5ccccc5[nH]4)c3)[C@H](C3CCCCC3)[C@H](O)[C@@H](O)[C@H]2C2CCCCC2)c1 | – | – | 0.29 | 14 | – | – |
| O=C(Nc1nc2ccccc2[nH]1)c1cccc(CN2C(=O)N(Cc3cccc(C(=O)Nc4nc5ccccc5[nH]4)c3)[C@H](Cc3ccccc3)[C@H](O)[C@@H](O)[C@H]2Cc2ccccc2)c1 | 5 | 5 | – | 5 | 0.05 (≈ 0.0606 µM) | 21 |
